Measured values from article PMC9250534, “Synthesis and direct assay of large macrocycle diversities by combinatorial late-stage modification at picomole scale” (Nature Communications, 2022).
Blank lines part the entries; values can stand above or below the compound they belong to. Numbered stars: 1 amine (or outer) side, 2 acyl side, 3 side chain; on linkers, the order of the positions; unused ones are H or OH. Bridge positions count the residues as written; N and C are the ends. Square brackets hold non-standard residues; d marks the D form. Peptide text beside a SMILES is read from it. * marks the point of attachment. Pro(4S-NHCO(5-Cl-2-thienyl)) = O=C(N[C@@H]1CN[C@H](C(=O)O)C1)c1ccc(Cl)s1; 2Thenoyl(5-Cl) = O=C(c1ccc(Cl)s1)*; Pyrazinecarbonyl = O=C(c1cnccn1)*; Phenoxyacetyl = O=C(COc1ccccc1)*; Cysteamide = C(CS[*:3])N[*:1]; X3 = O=C(Cc1c[nH]c2ccccc12)*; Isovaleryl = CC(C)CC(=O)*; Orn = NCCC[C@H](N)C(=O)O; 2Furoyl = O=C(c1ccco1)*; Bz = O=C(c1ccccc1)*; βAla = NCCC(=O)O; Mpa = O=C(O)CCS

Molecular target: T1, thrombin (Homo sapiens, UniProt P00734)
T1 construct: consists of two polypeptide chains of 36 (light chain) and 259 amino acid
Experiment: Thrombin inhibition screen of crude macrocycle reactions (residual thrombin activity, fluorogenic substrate Z-Gly-Gly-Arg-AMC)
Type: biochemical
Details: 10 µM macrocycle concentration; for percent residual thrombin activity: crude reactions, Library 1a-l, scaffold AA1-AA2-AA3 combined with 1-16 or '-'; for % thrombin activity, Original screen / % thrombin activity, Repeat screen: macrocycles containing acid 14, crude reaction; for % thrombin activity, Repeat screen: replicate reaction and screen
Procedure, shortened: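 Each crude macrocycle (10 μM) was preincubated 10 min at room temperature with thrombin (2 nM final) in Tris-Cl pH 7.4 containing NaCl, MgCl2, CaCl2, 0.1% BSA, 0.01% Triton X-100 and 0.6% DMSO. Z-Gly-Gly-Arg-AMC (50 μM final) was then added. Inhibition came from fluorescence slopes relative to DMSO-only controls.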

Compound: CC(C)[C@@H]1NC(=O)CCSSCCNC(=O)[C@@H]2CCCN2C(=O)[C@H](CCCCNC(=O)c2ccc(Cl)s2)NC1=O [V-D1-B1/14] ([Mpa]VK(2Thenoyl(5-Cl))P-Cysteamide; disulfide 1-C)
percent residual thrombin activity: 105.594%

Compound: CC(C)CC(=O)NCCCC[C@@H]1NC(=O)[C@@H]2CCCN2C(=O)CCSSCCNC(=O)[C@@H](C(C)C)NC1=O [B1-D1-v/8] ([Mpa]PK(Isovaleryl)[dV]-Cysteamide; disulfide 1-C)
percent residual thrombin activity: 112.751%

Compound: NC(=O)CC[C@@H]1NC(=O)[C@H](CNC(=O)c2ccc(Cl)s2)NC(=O)CCSSCCNC(=O)C2(CC2)CNC1=O [X D3 Q B6]
% thrombin activity, Original screen: 72.8%
% thrombin activity, Repeat screen: 67.3%

Compound: CCC(C)C1NC(=O)C(CNC(=O)c2ccc(Cl)s2)NC(=O)C2CCCN(C2)C(=O)CCSSCCNC1=O (centres unmarked) [X B4 D3 I]
% thrombin activity, Original screen: 64.0%
% thrombin activity, Repeat screen: 61.8%

Compound: C[C@H]1NC(=O)CCSSCCNC(=O)[C@H]2CCCN(C2)C(=O)[C@H](CCCCNC(=O)c2c[nH]c(=O)cn2)NC1=O [a-D1-B4/9]
percent residual thrombin activity: 108.338%

Compound: CC[C@H](C)[C@@H]1NC(=O)[C@H](CCCCNC(=O)COc2ccccc2)NC(=O)CCSSCCNC(=O)C2(CC2)CNC1=O [D1-I-B6/13]
percent residual thrombin activity: 106.199%

Compound: CC(C)C[C@@H]1NC(=O)CCSSCCNC(=O)[C@H](CCCCN)NC(=O)C2(CC2)CNC1=O [L-B6-D1/-]
percent residual thrombin activity: 103.319%

Compound: NC(=O)CC[C@@H]1NC(=O)CCSSCCNC(=O)[C@H]2CCCN(C2)C(=O)[C@H](CCCCNC(=O)COc2ccccc2)NC1=O [Q-D1-B4/13]
percent residual thrombin activity: 120.491%

Compound: NCCCC[C@@H]1NC(=O)CCSSCCNC(=O)[C@H]2CCCN(C2)C(=O)[C@H](Cc2ccccc2)NC1=O [D1-F-B4/-]
percent residual thrombin activity: 110.104%

Compound: NC(=O)CC[C@@H]1NC(=O)[C@H](CCCCNC(=O)COc2ccccc2)NC(=O)CCSSCCNC(=O)[C@@H]2CCCN2C1=O [D1-Q-B1/13] ([Mpa]K(Phenoxyacetyl)QP-Cysteamide; disulfide 1-C)
percent residual thrombin activity: 104.037%

Compound: O=C1CCSSCCNC(=O)[C@@H](CNC(=O)c2ccc(Cl)s2)NC(=O)[C@@H](Cc2c[nH]c3ccccc23)NC(=O)C2(CC2)CN1 [X B6 w D4]
% thrombin activity, Original screen: 102.8%
% thrombin activity, Repeat screen: 106.2%

Compound: O=C1CCSSCCNC(=O)C2CC(NC(=O)c3ccc(Cl)s3)CN2C(=O)C2CCCN(C2)C(=O)C(Cc2ccccc2)N1 (centres unmarked) [X f B4 D5]
% thrombin activity, Original screen: 91.9%
% thrombin activity, Repeat screen: 99.4%

Compound: NC(=O)CC[C@@H]1NC(=O)CCSSCCNC(=O)[C@H]2CCCN(C2)C(=O)[C@H](CCCCNC(=O)c2ccc(Cl)s2)NC1=O [Q-D1-B4/14]
percent residual thrombin activity: 109.426%

Compound: O=C1CCSSCCNC(=O)[C@H](CCCCNC(=O)c2c[nH]c(=O)[nH]c2=O)NC(=O)[C@H]2CCCN(C2)C(=O)[C@@H](CO)N1 [s-B4-D1/11]
percent residual thrombin activity: 112.975%

Compound: C[C@H]1NC(=O)CCSSCCNC(=O)[C@@H]2CCCN2C(=O)[C@H](CCCCNC(=O)Cc2c[nH]c3ccccc23)NC1=O [a-D1-B1/12] ([Mpa][dA]K(X3)P-Cysteamide; disulfide 1-C)
percent residual thrombin activity: 113.455%

Compound: CC[C@H](C)[C@@H]1NC(=O)[C@H](CCCNC(=O)CC(C)C)NC(=O)CCSSCCNC(=O)CCNC1=O [D2-I-B2/8] ([Mpa][Orn](Isovaleryl)I[βAla]-Cysteamide; disulfide 1-C)
percent residual thrombin activity: 110.049%

Compound: NC(=O)CC[C@@H]1NC(=O)[C@@H]2C[C@H](NC(=O)c3ccc(Cl)s3)CN2C(=O)[C@@H]2CCCN2C(=O)CCSSCCNC1=O [X B1 D5 Q] ([Mpa]P[Pro(4S-NHCO(5-Cl-2-thienyl))]Q-Cysteamide; disulfide 1-C)
% thrombin activity, Original screen: 96.1%
% thrombin activity, Repeat screen: 98.4%

Compound: NC(=O)CC[C@@H]1NC(=O)[C@H](CCCCNC(=O)Cc2c[nH]c3ccccc23)NC(=O)CCSSCCNC(=O)[C@@H]2CCCN2C1=O [D1-Q-B1/12] ([Mpa]K(X3)QP-Cysteamide; disulfide 1-C)
percent residual thrombin activity: 104.82%

Compound: CC(C)CC(=O)NCCC[C@@H]1NC(=O)[C@H]2CCCN(C2)C(=O)[C@H](CC(C)C)NC(=O)CCSSCCNC1=O [L-B4-D2/8]
percent residual thrombin activity: 106.945%

Compound: O=C1CCSSCCNC(=O)[C@H]2CCCN(C2)C(=O)C2(CCN(C(=O)c3ccc(Cl)s3)CC2)NC(=O)[C@@H](CO)N1 [X s D6 B4]
% thrombin activity, Original screen: 93.8%
% thrombin activity, Repeat screen: 97.7%

Other lines, results leading:

percent residual thrombin activity: 112.189%
Compound: O=C(Cc1c[nH]c2ccccc12)NCCC[C@@H]1NC(=O)CCSSCCNC(=O)c2ccc(cc2)CNC(=O)[C@H](Cc2c[nH]c3ccccc23)NC1=O [D2-W-B3/12]

percent residual thrombin activity: 82.899%
Compound: O=C1CCSSCCNC(=O)[C@@H](Cc2ccccc2)NC(=O)[C@H]2CCCN(C2)C(=O)[C@H](CCCNC(=O)c2ccc(Cl)s2)N1 [D2-B4-f/14]

percent residual thrombin activity: 104.356%
Compound: NC(=O)CCC1NC(=O)C(CCCCNC(=O)c2cnccn2)NC(=O)CCSSCCNC(=O)C2CCCN2C1=O (centres unmarked) [D1-Q-B1/2] ([Mpa]K(Pyrazinecarbonyl)QP-Cysteamide; disulfide 1-C; configuration not given here)

percent residual thrombin activity: 118.291%
Compound: CC(C)C[C@@H]1NC(=O)[C@H](CCCNC(=O)COc2ccccc2)NC(=O)C2(CC2)CNC(=O)CCSSCCNC1=O [B6-D2-L/13]

percent residual thrombin activity: 105.697%
Compound: O=C(NCCCC[C@@H]1NC(=O)[C@@H]2CCCN2C(=O)CCSSCCNC(=O)[C@@H](Cc2ccc(O)cc2)NC1=O)c1ccccc1 [B1-D1-y/1] ([Mpa]PK(Bz)[dY]-Cysteamide; disulfide 1-C)

percent residual thrombin activity: 111.509%
Compound: CC(C)C[C@@H]1NC(=O)CCNC(=O)CCSSCCNC(=O)[C@H](CCCNC(=O)c2ccco2)NC1=O [B2-L-D2/16]

percent residual thrombin activity: 106.813%
Compound: O=C1CCSSCCNC(=O)[C@H](CCCCNC(=O)c2cnccn2)NC(=O)[C@H](Cc2ccc(O)cc2)NC(=O)C2(CC2)CN1 [B6-Y-D1/2]

% thrombin activity, Original screen: 62.7%
% thrombin activity, Repeat screen: 59.9%
Compound: O=C1CCSSCCNC(=O)C(CNC(=O)c2ccc(Cl)s2)NC(=O)C(Cc2ccccc2)NC(=O)c2ccc(cc2)CN1 (centres unmarked) [X B3 F D3]

percent residual thrombin activity: 88.7647%
Compound: O=C(COc1ccccc1)NCCCC[C@@H]1NC(=O)C2(CC2)CNC(=O)[C@H](Cc2c[nH]c3ccccc23)NC(=O)CCSSCCNC1=O [W-B6-D1/13]

percent residual thrombin activity: 116.586%
Compound: O=C1CCSSCCNC(=O)[C@H](Cc2ccc(O)cc2)NC(=O)[C@H](CCCNC(=O)c2ccco2)NC(=O)CCN1 [B2-D2-Y/16]

% thrombin activity, Original screen: 99.9%
% thrombin activity, Repeat screen: 100.1%
Compound: O=C1CCSSCCNC(=O)[C@@H](Cc2ccc(O)cc2)NC(=O)[C@H]2CCCN(C2)C(=O)[C@H](CCCCNC(=O)c2ccc(Cl)s2)N1 [X D1 B4 y]

% thrombin activity, Original screen: 88.0%
% thrombin activity, Repeat screen: 89.2%
Compound: O=C1CCSSCCNC(=O)[C@H](CNC(=O)c2ccc(Cl)s2)NC(=O)[C@@H](Cc2ccc(O)cc2)NC(=O)c2ccc(cc2)CN1 [X B3 y D3]

% thrombin activity, Original screen: 60.0%
% thrombin activity, Repeat screen: 43.4%
Compound: CC(C)C[C@@H]1NC(=O)C2(CC2)CNC(=O)CCSSCCNC(=O)[C@H](CCCNC(=O)c2ccc(Cl)s2)NC1=O [X B6 L D2]

percent residual thrombin activity: 94.7651%
Compound: CC(C)C[C@@H]1NC(=O)CCSSCCNC(=O)[C@H](CCCCNC(=O)c2ccc(Cl)s2)NC(=O)C2(CC2)CNC1=O [L-B6-D1/14]

% thrombin activity, Original screen: 106.8%
% thrombin activity, Repeat screen: 115.5%
Compound: CC1NC(=O)CCSSCCNC(=O)C(CCCCNC(=O)c2ccc(Cl)s2)NC(=O)C2CCCN2C1=O (centres unmarked) [X a B1 D1] ([Mpa]APK(2Thenoyl(5-Cl))-Cysteamide; disulfide 1-C; configuration not given here)

percent residual thrombin activity: 110.146%
Compound: O=C1CCNC(=O)[C@H](CO)NC(=O)[C@H](CCCNC(=O)Cc2c[nH]c3ccccc23)NC(=O)CCSSCCN1 [D2-S-B2/12]

percent residual thrombin activity: 99.4462%
Compound: O=C(Cc1c[nH]c2ccccc12)NCCC[C@@H]1NC(=O)CCSSCCNC(=O)[C@H](Cc2c[nH]cn2)NC(=O)c2cccc(c2)CNC1=O [D2-B5-H/12]

percent residual thrombin activity: 119.352%
Compound: NCCC[C@@H]1NC(=O)c2ccc(cc2)CNC(=O)[C@H](CO)NC(=O)CCSSCCNC1=O [S-B3-D2/-]

% thrombin activity, Original screen: 103.5%
% thrombin activity, Repeat screen: 106.9%
Compound: CC1NC(=O)C(CNC(=O)c2ccc(Cl)s2)NC(=O)CCSSCCNC(=O)c2cccc(c2)CNC1=O (centres unmarked) [X D4 a B5]

percent residual thrombin activity: 107.685%
Compound: NC(=O)CC[C@@H]1NC(=O)CCSSCCNC(=O)[C@H](CCCCNC(=O)c2cnccn2)NC(=O)C2(CC2)CNC1=O [Q-B6-D1/2]

percent residual thrombin activity: 105.138%
Compound: O=C1CCSSCCNC(=O)[C@@H]2CCCN2C(=O)[C@H](Cc2ccc(O)cc2)NC(=O)[C@H](CCCNC(=O)c2ccco2)N1 [D2-Y-B1/16] ([Mpa][Orn](2Furoyl)YP-Cysteamide; disulfide 1-C)

percent residual thrombin activity: 105.866%
Compound: C[C@H]1NC(=O)CCSSCCNC(=O)c2cccc(c2)CNC(=O)[C@H](CCCCNC(=O)COc2ccccc2)NC1=O [a-D1-B5/13]

percent residual thrombin activity: 109.064%
Compound: O=C1CCSSCCNC(=O)[C@H](Cc2ccc(O)cc2)NC(=O)[C@H](CCCNC(=O)COc2ccccc2)NC(=O)CCN1 [B2-D2-Y/13]

percent residual thrombin activity: 109.797%
Compound: O=C(COc1ccccc1)NCCCC[C@@H]1NC(=O)[C@H](Cc2ccccc2)NC(=O)CCSSCCNC(=O)[C@H]2CCCN(C2)C1=O [F-D1-B4/13]

% thrombin activity, Original screen: 110.6%
% thrombin activity, Repeat screen: 115.5%
Compound: CC(C)CC1NC(=O)C2CC(NC(=O)c3ccc(Cl)s3)CN2C(=O)CCSSCCNC(=O)c2ccc(cc2)CNC1=O (centres unmarked) [X D5 L B3]

percent residual thrombin activity: 99.2373%
Compound: COc1ccc(C(=O)NCCCC[C@@H]2NC(=O)c3ccc(cc3)CNC(=O)CCSSCCNC(=O)[C@H](Cc3ccc(O)cc3)NC2=O)cn1 [B3-D1-Y/10]
